Measurements published in US5264423A, “Inhibitors for replication of retroviruses and for the expression of oncogene products” (The United States of America as represented by the …, priority 1992, dated 1993).
“Also recorded” adds a separate entry of the source.

What was measured:
[1] = system: gamma-interferon; test: Induction of gamma-interferon in culture supernatant; assay type: cell-based; conditions: supernatant of the culture
Source text: Another mechanism which should be considered is induction of interferon production such as that proposed for phosphorothioate analogs of poly-r(I-C). […] Also, since there are no data to support the concept that phosphorothioate internucleotide linkages have a thiol character, and can thus form disulfides, the mechanism of action would likely be different from that proposed for antiviral polynucleotides having thiolated bases such as 5-mercapto-cytosine or -uracil.

[2] = system: ATH8 cells; test: Cytotoxicity of ODNs (Table 2); assay type: cell-based
Source text: Since phosphorothioate ODNs which are not anti-sense sequences appear to be very effective antiviral agents, an attempt was made to clarify the nature of the base composition effect.

[3] = system: HIV (HTLV-IIIB) in ATH8 cells; test: HIV cytopathic effect inhibition (viable ATH8 cells, trypan blue); conditions: for protection of target cells, single agent: each agent alone (2 micromoles dideoxyadenosine; 5 micromoles S-dC14), 1000 virions per cell, day 13; for anti-HIV activity (cytopathic effect): in words
Protocol: FIGS. 1A-1D and Table 1, The target cells (2×10^5 ATH8 cells) in each tube were pretreated with the stated concentration of each oligomer for 16 hours and then incubated with Polybrene for 45 minutes. After centrifugation, each set of pelleted cells was exposed to HIV (500 virions per cell, which is a much higher dose than the minimal cytopathic dose) and incubated for one hour. Complete media (2 ml RPMI1640) supplemented with L-glutamine (4 mti), 2-mercaptoethanol ([…]), penicillin (50 unit/ml), and streptomycin (50 micrograms/ml), and containing 15% fetal calf serum and IL-2 (15% of conventional IL-2 from Advanced Biotechnologies, Inc., Silver Spring, MD, plus 20 unit/ml of recombinant IL-2 from Amgen Biochemicals, Thousand Oaks, CA) with the various concentrations of oligomers added. The number of viable cells were counted in a hemocytometer using the trypan blue exclusion method for day 7 following exposure to the virus. Filled columns represent non-virus exposed cells, and dotted columns represent virus exposed cells.
The HIV cytopathic effect inhibition with oligodeoxynucleotides was performed with 18 hours of pretreatment of 2×10^5 target cells (ATH8 cells) with oligos prior to exposure to HTLV-IIIB. After this pretreatment, target cells were treated with Polybrene (2 micrograms/ml) for one hour. The target cells were then, respectively, exposed to HTLV-IIIB virus (generally 500 virions per cell in this series of experiments) for one hour. The 2×10^5 cells were then diluted to 2 ml with complete media containing IL-2 and various concentrations of oligos.
The number of viable cells was counted in a hemocytometer using the trypan blue exclusion method on day 7 following exposure to the virus. Each set of data were obtained from simultaneously performed experiments so as to make a precise comparison among agents tested.
The target cells (2×10^5 ATH8 cells per tube) were preincubated with the stated concentrations of S-dC14 for 24 hours and pretreated with 2 micrograms/ml of Polybrene for 45 minutes. After centrifugation, pelleted cells were exposed to the HIV (1000 virions per cell) for one hour. The cells were incubated in 2 ml of complete media containing IL-2, and the viable cells were counted on day 13.
On day 13 after the exposure to the virus, viable cells were counted by the trypan blue dye exclusion method.

[4] = Stability in in vitro test media followed by 31P NMR; assay type: in vitro ADME
Source text: The phosphorothioate oligodeoxynucleotides of the present invention have suitable chemical characteristics, namely, the ability to hybridize with complementary DNA/MRNA under physiological conditions, and better solubility properties relative to methylphosphonates. Moreover, the thioesters are as soluble in biological media as the parent compounds.
Thus, it is believed that it is mainly the relative resistance of the phosphorothioate analogs to nucleases that preserves them relative to n-ODNs, and allows them to reach and remain at their target site. This was supported in relation to the media used in the in vitro test system by following the 31P NMR spectra of the n-ODN-1 and S-ODN-1 compounds as a function of time.

[5] = system: de novo HIV DNA synthesis in ATH8 cells; test: Southern blot of de novo HIV DNA synthesis; assay type: cell-based; conditions: positive control, 50 micromoles (lanes E and J)
Source text: Target cells (1×10^7 ATH8 cells) were pretreated with or without S-dC28 at various concentrations for sixteen hours, then treated with Polynrene, exposed to HIV (500 virus particles per cell), resuspended, and cultured in the presence or absence of S-dC28. On days 4 and 7 following the exposure to the virus, high molecular weight DNA was extracted, digested with Asp718 (a Kpn I isoschizomer from Boehringer-tiannheim, Indianapolis, IN), and subjected to Southern blot analysis hybridized with a labelled insert of molecular clone of the env region of HTLV-III (BH10) containing a 1.3 Kb Bgl II fragment.
FIGS. 6A-6D show the inhibitor effect of the phosphorothioate oligodeoxycytidine analog (S-dC28) on de novo HIV DNA synthesis in target cells. On days 4 and 7 following the exposure to the virus, a substantial amount of viral DNA was detected by Southern blot analysis without antiviral agents.
On day 4, shown in lanes A-E, and day 7, shown in lanes F-J, following exposure to the virus, high molecular weight DNA was extracted. Lanes A and F contain DNA from ATH8 cells that were exposed to the virus and not protected by S-dC28. Lanes B and G, C and H, D and I, contain DNA from ATH8 cells pretreated and cultured with 1 micromole, 5 micromoles, and 7 micromoles S-dC28, respectively. Lanes E and J contain DNA from ATH8 cells treated with 50 micromoles 2', 3'-dideoxyadenonsine, and lane K contains DNA from ATH8 cells that was not exposed to the virus.

[6] = system: HL60 cells; test: HL60 cell growth (cell count); assay type: cell-based; conditions: in words
[7] = system: snake venom (SV) phosphodiesterase; test: Nuclease susceptibility, snake venom phosphodiesterase; assay type: in vitro ADME
Source text: (§1) Several oligodeoxynucleotides were studied with regard to DNase sensitivity, cf. Table 5. These include cytidine homopolymers, ODN-4 (an anti-message 28-mer complementary to the 3' region of the art/trs region of HIV BH10 clone), and myc-1 (a 15-mer complementary to the initiation codon region of the C-myc oncogene). The DNases employed were predominantly endonuclease S1, the exo- and endonuclease P1, and snake venom (SV) phosphodiesterase. The concentration of S1 nuclease was ten-fold higher (100 micromoles/ml) for reactions of oligo-dc, since both the normal and PS analog were degraded extremely slowly be this enzyme. S1 and P1 nuclease digestion proceeded at 2-45 times more slowly for the S-ODNs than for the normal oligomers, with the […] being somewhat more readily digested than the 28-mer.

[8] = system: exo- and endonuclease P1; test: Nuclease susceptibility, P1 nuclease; assay type: in vitro ADME
Source text: as §1

[9] = Stability in human serum; assay type: in vitro ADME; conditions: 31P NMR
[10] = system: endonuclease S1; test: Nuclease susceptibility, S1 nuclease; assay type: in vitro ADME
Source text: as §1

## (dC)n n = 14 [S-dC14]
[1]
  induction of gamma-interferon: No induction of gamma-interferon
[2]; 1 uM
  CYTOTOXICITY (%): 0%
[2]; 5 uM
  CYTOTOXICITY (%): 0%
[2]; 10 uM
  CYTOTOXICITY (%): 0%
[2]; 25 uM
  CYTOTOXICITY (%): 0%
[3]; 1 uM
  ANTI-VIRAL EFFECT (%): 25%
[3]; 5 uM
  ANTI-VIRAL EFFECT (%): 100%
[3]; 10 uM
  ANTI-VIRAL EFFECT (%): 100%
[3]; 25 uM
  ANTI-VIRAL EFFECT (%): 100%
[3]; 5 micromoles (65 micromole equivalents), FIGS. 6B-6D
  protection against the virus: only a moderate effect
[3]
  protection of target cells, single agent: only marginal protective effects
  anti-HIV activity (cytopathic effect): most potent antiviral compound among those tested in this series of experiments
[3]; listed as 14-mer oligo-dc
  anti-HIV activity (cytopathic effect): substantial protection against HIV cytopathic effect

## d-(Gs Gs As Gs As Cs As Gs Cs Gs As Cs Gs A) [S-ODN-2]
[2]; 1 uM
  CYTOTOXICITY (%): 0%
[2]; 5 uM
  CYTOTOXICITY (%): 0%
[2]; 10 uM
  CYTOTOXICITY (%): 0%
[2]; 25 uM
  CYTOTOXICITY (%): 6%
[3]; 1 uM
  ANTI-VIRAL EFFECT (%): 11%
[3]; 5 uM
  ANTI-VIRAL EFFECT (%): 56%
[3]; 10 uM
  ANTI-VIRAL EFFECT (%): 100%
[3]; 25 uM
  ANTI-VIRAL EFFECT (%): 78%
[3]
  anti-HIV activity (cytopathic effect): protected against HIV

## recombinant gamma-interferon: recombinant alpha- or gamma-interferon
[3]; 1000 units added directly to the cultures
  inhibition of the cytopathic effect: did not inhibit the cytopathic effect

## d-(Ts Cs Gs Ts Cs Gs Cs Ts Gs Ts Cs Ts Cs C) [S-ODN-1]
[2]; 1 uM
  CYTOTOXICITY (%): 0%
[2]; 5 uM
  CYTOTOXICITY (%): 0%
[2]; 10 uM
  CYTOTOXICITY (%): 0%
[2]; 25 uM
  CYTOTOXICITY (%): 20%
[4]; 10 days
  phosphorothioate bonds after 10 days: still intact after 10 days
[4]; after 10 days
  decomposition based on the total signal intensity: less than 5%
[4]; up to a week
  degradation / half-life in media used in the in vitro test system: no significant degradation even after a week
[3]; 1 uM
  ANTI-VIRAL EFFECT (%): 0%
[3]; 5 uM
  ANTI-VIRAL EFFECT (%): 43%
[3]; 10 uM
  ANTI-VIRAL EFFECT (%): 72%
[3]; 25 uM
  ANTI-VIRAL EFFECT (%): 95%
[3]
  anti-HIV activity (cytopathic effect): substantial activity against HIV; also recorded: protected against HIV

## Nc1ncnc2c1ncn2[C@H]1CC[C@@H](CO)O1 [2', 3'-dideoxyadenosine, reference compound]
[3]
  protection of target cells, single agent: only marginal protective effects
[5]
  inhibition of de novo synthesis of viral DNA: significantly inhibited the de novo synthesis of viral DNA
[5]; listed as 2', 3'-dideoxyadenonsine
  inhibition of de novo synthesis of viral DNA: detected only in lanes A and F

## Nc1ccn([C@H]2CC[C@@H](CO)O2)c(=O)n1 [2', 3'-dideoxycytidine, reference compound]
[3]; 0.5 micromoles
  protection against the virus / antiviral activity: complete antiviral activity

## d-(Cs As Ts As Gs Gs As Gs As Ts Gs Cs Cs T) [S-ODN-3]
[2]; 1 uM
  CYTOTOXICITY (%): 0%
[2]; 5 uM
  CYTOTOXICITY (%): 0%
[2]; 10 uM
  CYTOTOXICITY (%): 0%
[2]; 25 uM
  CYTOTOXICITY (%): 13%
[3]; 1 uM
  ANTI-VIRAL EFFECT (%): 0%
[3]; 5 uM
  ANTI-VIRAL EFFECT (%): 6%
[3]; 10 uM
  ANTI-VIRAL EFFECT (%): 44%
[3]; 25 uM
  ANTI-VIRAL EFFECT (%): 94%

## 5'-CTG AAG TGG CAT GAG (CTGAAGTGGCATGAG; all phosphorothioate, sugars by position and methylation of C not given here) [non-sense sequence, reference compound]
[6]
  effect on HL60 cell proliferation: none of the controls used, namely, the non-sense sequence, has shown similar activity
[6]; listed as nonsense S-ODN
  effect on HL60 cell proliferation: not all nonsense S-ODN concentrations affected cell proliferation

## dTCGTCGCTGTCTCCGCTTCTTCCTGCCA [O-ODN-4, reference compound]
[7]
  Nuclease susceptibility, t1/2: 20 s
[8]
  Nuclease susceptibility, t1/2: 72 s

## dAACGTTGAGGGGCAT [O-myc-1, reference compound]
[9]
  half-life in 50% human serum: two to three days
[10]
  Nuclease susceptibility, t1/2: 36 s
[7]
  Nuclease susceptibility, t1/2: 28 s
[8]
  Nuclease susceptibility, t1/2: 69 s
